Data on 12 molecules can be found in patent US8431533B2, “GLP-1 fusion peptides, their production and use” (Biocompatibles UK Ltd., priority 2005, dated 2013).

Where two headings read alike, the source gives them in different places. Ends that are not written are not given here.

The test system of series [1] is type II diabetic mice (C57BL/Ks-Lepr^db/db). Kind of series: In vivo bioactivity, blood glucose in type II diabetic mice. To be noted: 5 μg peptide s.c. twice a day, day 2, 4, 7, 10, after overnight fast. On the procedure: 11-week-old type II diabetic mice (C57BL/Ks-Lepr^db/db, Harlan) were treated with 5 μg peptide by subcutaneous injection twice a day at 9 a.m. and 5 p.m. (n=5 per group). Blood glucose was measured before (day 0) and after treatment with GLP^CM peptides (Day 2, 4, 7, 10) at 10 a.m. after an overnight fastening period. Data were presented in relation to blood glucose levels measured at day 0.

For series [2], the system named is diabetic C57BL/KsJ@Rj-db (db/db) mice. Kind of series: Dose-efficacy study in diabetic mice. Type of series: in vivo. How it is done:
A sixth group was treated with saline only. 7 animals were treated per group. Blood glucose was determined from tail bleeds directly before, 1 hour and 4 hours after injection. […] For every test substance a graph was prepared with the percentage difference of the blood glucose in relation to the start value for the different concentrations. […] Both models are sigmoidal fit models suitable for dose response evaluation.

The test system of series [3] is C57BL/KsJ@Rj-db (db/db) mice. Description: Long-term treatment of db/db mice. Type of series: in vivo.
Procedure: Blood glucose was measured from a tail bleed after a 12-hour overnight fast 18 hours after s.c. injection of the test substances. […] The serum was analysed for insulin with the Insulin Mouse Ultrasensitive ELISA (Cat.#EIA-3440, DRG).
Series [4] relates to BALB/c mice. Description: In vivo study, immunogenicity. To be noted: 5 repeated injections, 70 μg peptide/dose, i.v., over 22 d.
Procedure: The trial was done in BALB/c mice receiving 5 repeated injections (70 μg peptide/dose, i.v.) over 22 d (n=5).
Spleens of the treated and control mice were explanted, T-cells isolated and stimulated with increasing amounts of antigene. Proliferative recall response is measured.
The target of series [5] is T1, DPPIV (Homo sapiens, UniProt P27487). Kind of series: In vitro plasma stability of GLP1CM peptides (kinetic test method). To be noted: 10% human plasma; for remaining at 9 h, 1 μM: human, pH 7.8; for DT80: time needed to degrade active GLP-1 to 80% of the 0 h value, 1 μM peptide.
Target sequence in this assay (P27487 39-766 limits assumed): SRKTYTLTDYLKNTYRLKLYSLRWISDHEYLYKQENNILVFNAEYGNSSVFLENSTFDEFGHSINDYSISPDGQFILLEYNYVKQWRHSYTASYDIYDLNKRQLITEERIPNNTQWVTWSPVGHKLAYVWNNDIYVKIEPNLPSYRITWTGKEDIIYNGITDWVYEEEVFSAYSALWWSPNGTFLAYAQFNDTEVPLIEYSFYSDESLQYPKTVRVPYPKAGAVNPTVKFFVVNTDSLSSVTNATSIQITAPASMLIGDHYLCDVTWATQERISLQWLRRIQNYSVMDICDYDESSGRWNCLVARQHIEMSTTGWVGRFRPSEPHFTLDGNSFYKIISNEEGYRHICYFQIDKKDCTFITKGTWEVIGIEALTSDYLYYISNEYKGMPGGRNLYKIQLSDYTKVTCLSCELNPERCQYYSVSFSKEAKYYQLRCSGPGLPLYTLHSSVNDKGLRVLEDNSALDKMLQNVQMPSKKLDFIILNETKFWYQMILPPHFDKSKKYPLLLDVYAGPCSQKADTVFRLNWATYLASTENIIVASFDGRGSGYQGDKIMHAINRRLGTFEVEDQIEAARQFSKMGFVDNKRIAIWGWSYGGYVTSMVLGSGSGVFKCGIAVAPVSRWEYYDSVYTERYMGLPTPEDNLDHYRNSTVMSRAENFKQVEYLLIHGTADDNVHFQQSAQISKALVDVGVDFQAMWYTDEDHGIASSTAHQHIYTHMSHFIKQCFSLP
Source text: (§1) Results are from triplicates in at least two independent experiments.
In series [6] the target is T1, DPPIV. Kind of series: In vitro plasma stability of GLP-1 peptides secreted from human cells. Type of series: in vitro ADME. On the set-up: human lymphocyte enriched plasma containing dipeptidylpeptidase activity; from tissue; host or cells: human lymphocyte enriched plasma. To be noted: human lymphocyte enriched plasma, 37° C., 3 or 4 hours. An excerpt:
HEK293 and hTERT-MSC cells were transiently transfected with constructs, encoding the heterologous stromelysin signal sequence, which is linked to GLP-1 variants encoding the following peptides: […]
Target sequence in this assay (P27487 whole entry): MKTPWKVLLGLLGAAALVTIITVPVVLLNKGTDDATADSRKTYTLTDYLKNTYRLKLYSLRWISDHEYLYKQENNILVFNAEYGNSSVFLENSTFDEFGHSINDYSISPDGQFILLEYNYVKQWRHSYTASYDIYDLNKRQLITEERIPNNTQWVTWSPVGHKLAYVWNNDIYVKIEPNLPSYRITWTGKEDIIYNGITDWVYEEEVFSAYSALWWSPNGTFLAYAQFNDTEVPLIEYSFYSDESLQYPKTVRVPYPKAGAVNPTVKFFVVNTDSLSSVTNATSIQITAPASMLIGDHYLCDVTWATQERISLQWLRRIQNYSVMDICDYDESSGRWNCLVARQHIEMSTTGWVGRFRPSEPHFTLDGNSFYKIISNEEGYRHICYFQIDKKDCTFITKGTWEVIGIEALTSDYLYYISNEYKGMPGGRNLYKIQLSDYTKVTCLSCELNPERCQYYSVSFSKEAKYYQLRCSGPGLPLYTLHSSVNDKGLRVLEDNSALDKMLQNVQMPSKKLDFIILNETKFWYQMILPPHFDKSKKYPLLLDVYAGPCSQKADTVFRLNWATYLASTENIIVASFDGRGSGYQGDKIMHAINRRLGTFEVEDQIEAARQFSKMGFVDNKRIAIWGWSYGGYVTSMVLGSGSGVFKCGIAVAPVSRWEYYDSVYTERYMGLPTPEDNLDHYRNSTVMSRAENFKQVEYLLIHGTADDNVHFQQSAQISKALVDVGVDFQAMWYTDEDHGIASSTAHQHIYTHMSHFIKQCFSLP

The nature of series [7]: In vitro human plasma stability of GLP-1CM peptides. To be noted: 20 ng/ml, 37° C., 3 hours, GLP-1 (Active) ELISA. On the technique in general: An ELISA detects its analyte on a solid surface through an enzyme-linked reagent.
Source text: Dipeptidylpeptidase activity of the plasma was inhibited by an DPP-IV inhibitor (#DPP4, Biotrend).
Series [8] has as its target T1, DPPIV.
Target sequence in this assay (P27487 39-766 limits assumed): as the sequence (P27487 39-766 limits assumed) above
Source text: as §1
Series [9] has as its target T1, DPPIV. Kind of series: in vitro. To be noted: plasma, pH 7.8.
Target sequence in this assay (P27487 39-766 limits assumed): as above
Source text: as §1

For GLP-1(7-37)-IP2-RR-GLP1(7-37) [CM1], the “anti-hyperglycemia effect (blood glucose in relation to day 0)” value in series [1] is reported as “Best results”; in series [1] (listed as SEQ ID No.:6), “anti-hyperglycemia effect”. In addition, in series [2] (1 hour after single s.c. injection of 1.1-3.0 nmol peptide, versus control), the “fall in plasma glucose @1 h” value is given as 50% ± 14%@1 h. Further, in series [2] (4 hours after single s.c. injection of 1.1-3.0 nmol peptide, versus control), the “fall in plasma glucose @4 h” value was 0%@4 h. For the same molecule, in series [2] (single s.c. dose, percentage decrease of blood glucose at 1 h, sigmoidal fit), the “ED50 (plasma glucose)” value came to 0.61 μg/mouse. The “fasted blood glucose level” value in [3] (12-hour overnight fast, 18 h after peptide injection) was “reduced”. Besides, the “non fasted blood glucose level compared to control” value in series [3] (1 h after s.c. peptide injection, 24 nmol/kg) came out at 55%. For the same molecule, the food consumption entry in [3] (weekly, 122 day treatment period, compared to the control, p<0.001) was “significantly lower”. The toxicity result in series [4] is “no toxicity”.
As to `CC[C@H](C)[C@H](NC(=O)[C@H](Cc1ccccc1)NC(=O)[C@H](CCC(=O)O)NC(=O)[C@H](CCCCN)NC(=O)[C@H](C)NC(=O)[C@H](C)NC(=O)[C@H](CCC(N)=O)NC(=O)CNC(=O)[C@H](CCC(=O)O)NC(=O)[C@H](CC(C)C)NC(=O)[C@H](Cc1ccc(O)cc1)NC(=O)[C@H](CO)NC(=O)[C@H](CO)NC(=O)[C@@H](NC(=O)[C@H](CC(=O)O)NC(=O)[C@H](CO)NC(=O)[C@@H](NC(=O)[C@H](Cc1ccccc1)NC(=O)[C@@H](NC(=O)CNC(=O)[C@H](CCC(=O)O)NC(=O)[C@H](C)NC(=O)[C@@H](N)Cc1c[nH]cn1)[C@@H](C)O)[C@@H](C)O)C(C)C)C(=O)N[C@@H](C)C(=O)N[C@@H](Cc1c[nH]c2ccccc12)C(=O)N[C@@H](CC(C)C)C(=O)N[C@H](C(=O)N[C@@H](CCCCN)C(=O)NCC(=O)N[C@@H](CCCNC(=N)N)C(=O)NCC(=O)N[C@@H](CCCNC(=N)N)C(=O)N[C@@H](CCCNC(=N)N)C(=O)N[C@@H](CC(=O)O)C(=O)N[C@@H](Cc1ccccc1)C(=O)N1CCC[C@H]1C(=O)O)C(C)C` [CM3-ANA06, reference compound], in [5], the fraction remaining at 9 h, 1 μM was determined as 11%. Further, in series [5] (37° C.), the DT80 is given as 0.9 h.
Turning to “GLP-1(7-37) [compound 1, reference compound]”, the “resistance to DPP-IV degradation” value in series [6] is “inactivated by DPP-IV in a similar way to synthetic GLP-1”.
Turning to “HAEGTFTSDVSSYLEGQAAKEFIAWLVKGRGRRDFPEEVAIAEELG [CM3]”, in [7], the “stability in human plasma in vitro” value was “significantly stabilized”. The molecule also registered a DT80 in series [5] (37° C.) of 4.4 h.
Take “HAEGTFTSDVSSYLEGQAAKEFIAWLVKGRGRRDAAAAVAIAEELG [CM3-ANA03]”: in [5] (37° C.), the “in vitro plasma stability, comparison” value is “strongly reduced stability compared to CM3” and the DT80 is 1.6 h. Besides, in [5], the amount remaining at 9 h, 1 μM came out at 30%.
In turn, “HAEGTFTSDVSSYLEGQAAKEFIAWLVKGRGAADAAAAVAIAAALG [CM3-ANA04]” displayed an amount remaining at 9 h, 1 μM in [5] of 65%. The molecule also showed a DT80 in series [5] (37° C.) of 4.7 h.
For the molecule GLP1(7-37)-IP2-GLP1(7-37) [compound 3], the “resistance to DPP-IV degradation” value in series [6] was “nearly fully stabilised to DPP-IV degradation in vitro”.
“HAEGTFTSDVSSYLEGQAAKEFIAWLVKGRGRRDFAEEVAIAEELG [CM3-ANA02]” had a fraction remaining at 9 h, 1 μM in series [5] of 65%. This molecule also had a DT80 in [5] (37° C.) of 4.5 h.
In series [8], `CC[C@H](C)[C@H](NC(=O)[C@H](Cc1ccccc1)NC(=O)[C@H](CCC(=O)O)NC(=O)[C@H](CCCCN)NC(=O)[C@H](C)NC(=O)[C@H](C)NC(=O)[C@H](CCC(N)=O)NC(=O)CNC(=O)[C@H](CCC(=O)O)NC(=O)[C@H](CC(C)C)NC(=O)[C@H](Cc1ccc(O)cc1)NC(=O)[C@H](CO)NC(=O)[C@H](CO)NC(=O)[C@@H](NC(=O)[C@H](CC(=O)O)NC(=O)[C@H](CO)NC(=O)[C@@H](NC(=O)[C@H](Cc1ccccc1)NC(=O)[C@@H](NC(=O)CNC(=O)[C@H](CCC(=O)O)NC(=O)[C@H](C)NC(=O)[C@@H](N)Cc1c[nH]cn1)[C@@H](C)O)[C@@H](C)O)C(C)C)C(=O)N[C@@H](C)C(=O)N[C@@H](Cc1c[nH]c2ccccc12)C(=O)N[C@@H](CC(C)C)C(=O)N[C@H](C(=O)N[C@@H](CCCCN)C(=O)NCC(=O)N[C@@H](CCCNC(=N)N)C(=O)NCC(=O)N[C@@H](CCCNC(=N)N)C(=O)N[C@@H](CCCNC(=N)N)C(=O)N[C@@H](CC(=O)O)C(=O)N[C@@H](Cc1ccccc1)C(=O)N1CCC[C@H]1C(=O)N[C@@H](CCC(=O)O)C(=O)N[C@@H](CCC(=O)O)C(=O)N[C@H](C(=O)N[C@@H](C)C(=O)O)C(C)C)C(C)C` [CM3-ANA07] had a DT80 of 2.0 h. The same molecule displayed a share remaining at 9 h, 1 μM in series [9] of 37%.
Turning to “HAEGTFTSDVSSYLEGQAAKEFIAWLVKGRGAADFPEEVAIAEELG [CM3-ANA01]”, in series [8], the DT80 stood at 12.5 h and the “in vitro plasma stability, comparison” value is “higher plasma stability than CM3”.
“HAEGTFTSDVSSYLEGQAAKEFIAWLVKGRGRRDFPEEVAIAEELGRRHAC [CM3-ANA09]” showed a DT80 in series [8] of 4.2 h. The amount remaining at 9 h, 1 μM in [9] came to 60%.

B1: GLP-1(7-37)-IP2-RR-GLP2 (peptide)
chain: HAEGTFTSDVSSYLEGQAAKEFIAWLVKGRGRRDFPEEVAIAEELGRRHADGSFSDEMSTILDNLATRDFINWLIQTKITDKK
For B1, the “anti-hyperglycemia effect (blood glucose in relation to day 0)” value in [1] is recorded as “anti-hyperglycemia effect”. The “stability in human plasma in vitro” value in series [7] is listed as “significantly stabilized”.

As a reminder, the fraction remaining is the share of the starting amount still present when the sample was taken. A higher fraction remaining goes with less turnover.
